Reference: patent US20090169538A1, “Methods of Treating or Preventing Tissue Damage Caused by Increased Blood Flow” (REGENERX BIOPHARMACEUTICALS, INC., priority 2006, published 2009)

Experiments:
[1] = system: cardiac endothelial cells; assay: collagen gel assay, transformation of cardiac endothelial cells to mesenchymal cells; format: cell-based; details: Tβ4 at physiological concentrations
Method: Synthetic Tβ4 and an antibody to Tβ4 was provided by RegeneRx Biopharmaceuticals, Inc. (3 Bethesda Metro Center, Suite 700, Bethesda, Md. 20814) and were tested in a collagen gel assay to determine their effects on the Transformation of cardiac endothelial cells to mesenchymal cells. It is well established that development of heart valves and other cardiac tissue are formed by epithelial-mesenchymal transformation and that defects in this process can cause serious cardiovascular malformation and injury during development and throughout life. […] Transformation of atrioventricular endocardium into invasive mesenchyme is an aspect of the formation and maintenance of normal cardiac tissue and in the formation of heart valves.
Synthetic Tβ4 and an antibody to Tβ4 was provided by RegeneRx Biopharmaceuticals, Inc. (3 Bethesda Metro Center, Suite 700, Bethesda, Md. 20814) and were tested in a collagen gel assay to determine their effects on the Transformation of cardiac endothelial cells to mesenchymal cells. It is well established that development of heart valves and other cardiac tissue are formed by epithelial-mesenchymal transformation and that defects in this process can cause serious cardiovascular malformation and injury during development and throughout life. […]

embryonic heart explants = format: cell-based
From the text: To test the effects of secreted thymosin β4 on cardiac cell migration, an embryonic heart explant system designed to assay cell migration and transformation events on a three-dimensional collagen gel was utilized. In this assay, explants of adjacent embryonic myocardium and endocardium from valve-forming regions were placed on a collagen gel with the endocardium adjacent to the collagen.
Outflow tract was dissected from E11.5 wild type mouse embryos and placed on collagen matrices as previously described. After 10 hours of attachment explants were incubated in 30 ng/300 μl thymosin β4 in PBS, PBS alone or thymosin β4 and 100 nM wortmanin. Cultures were carried out for 3-9 days at 37° C. 5% CO2 and fixed in 4% paraformaldehyde in PBS for 10 min at RT. Cells were counted for quantification of migration and distance using at least three separate explants under each condition for endothelial migration and eight separate explants for myocardial migration.
Paraformaldehyde-fixed explants were permeabilized for 10 min at RT with Permeabilize solution (10 mM PIPES pH6.8; 50 mMNaCl; 0.5% Triton X-100; 300 mM Sucrose; 3 mM MgCl2) and rinsed with PBS 2×5 min at RT. After a series of blocking and rinsing steps, detection antibodies were used and explants rinsed and incubated with Equilibration buffer (Anti-Fade kit) 10 min at room temperature. Explants were scooped to a glass microscope slide, covered, and examined by fluorescein microscopy. TUNEL assay was performed using ApopTag Plus Fluorescein In Situ Apoptosis detection kit (Intergen Company # S7111) as recommended.

ILK = ILK localization, expression and activation (immunocytochemistry, Western); format: cell-based
Method: Because recruitment of ILK to the focal adhesion complex is important for its activation, the effects of thymosin β4 on ILK localization and expression were assayed. […] Because thymosin β4 sequesters the pool of G-actin monomers, the effects on ILK activation were dependent on thymosin β4's role in regulating the balance between polymerized F-actin and monomeric G-actin were tested. F-actin polymerization was inhibited using C3 transferase and also F-actin formation was promoted with an activated Rho, but neither intervention affected the ILK activation observed after treatment of COS1 or C2C 12 cells with thymosin β4.

myocardial infarction = myocardial infarction by coronary artery ligation, echocardiography and histology; format: in vivo, mice
Method: Because of thymosin β4's effects on survival and migration of cardiomyocytes cultured in vitro and phosphorylation of Akt, it was tested whether thymosin β4 might aid in cardiac repair in vivo after myocardial damage. Myocardial infarctions in fifty-eight adult mice were created by coronary artery ligation and treated half with systemic, intracardiac, or systemic plus intracardiac thymosin β4 immediately after ligation and the other half with PBS. Intracardiac injections were done with collagen (control) or collagen mixed with thymosin β4. All forty-five mice that survived two weeks later were interrogated for cardiac function by random-blind ultrasonagraphy at 2 and 4 weeks after infarction by multiple measurements of cardiac contraction. […] Control cardiac injections were performed with the same collagen vehicle making it unlikely that an endogenous reaction to the injection contributed to the cardiac recovery.
To determine the manner in which thymosin β4 improved cardiac function, multiple serial histologic sections of hearts treated with or without thymosin β4 were examined. […] TUNEL positive cells that were also myocytes were rare in the thymosin β4 group but abundant in the control hearts. […] Thus, the decreased scar volume and preserved function of thymosin β4 treated mice were likely due to early preservation of myocardium after infarction through thymosin β4's effects on survival of cardiomyocytes.
Embryonic or adult cardiac tissue was embedded in paraffin and sections used for immunohistochemistry. […] Adult hearts were sectioned at ten equivalent levels from the base of the heart to the apex. Serial sections were used for trichrome sections and reaction with sarcomeric a-actinin, c-kit, Sca-1, Abcg2, and BrdU antibodies and for TUNEL assay (Intergen Company # S7111).
Myocardial infarction was produced in fifty-eight male C57BL/6J mice at 16 weeks of age (25-30 g) by ligation of the left anterior descending coronary artery as previously described. Twenty-nine of the ligated mice received thymosin β4 treatment immediately following ligation and the remaining twenty-nine received PBS injections. Treatment was given intracardiac with thymosin β4 (200 ng in 10 ul collagen) or with 10 ul of collagen; intraperitoneally with thymosin β4 (150 μg in 300 μl PBS) or with […]; or by both intracardiac and intraperitoneal injections. Intraperitoneal injections were given every three days until mice were sacrificed. Doses were based on previous studies of thymosin β4 biodistribution. Hearts were removed, weighed and fixed for histologic sectioning. Additional mice were operated on in a similar fashion for studies 0.5, 1, 3, 6 and 11 days after ligation.
Echocardiograms to assess systolic function were performed using M-mode and 2-dimensional measurements as described previously. The measurements represented the average of six selected cardiac cycles from at least two separate scans performed in random-blind fashion with papillary muscles used as a point of reference for consistency in level of scan. End diastole was defined as the maximal left ventricle (LV) diastolic dimension and end systole was defined as the peak of posterior wall motion. Single outliers in each group were omitted for statistical analysis. Fractional shortening (FS), a surrogate of systolic function, was calculated from LV dimensions as follows: FS=EDD−ESD/EDD×100%. Ejection fraction (EF) was calculated from two-dimensional images. EDD, end diastolic dimension; ESD, end systolic dimension.
Scar volume was calculated using six sections through the heart of each mouse using Openlab 3.03 software (Improvision) similar to previously described. Percent area of collagen deposition was measured on each section in blinded fashion and averaged for each mouse.

[2] = four weeks after infarction, versus control

## thymosin β4
[1]
  transformation of endocardial cells to mesenchymal cells: markedly enhances
Embryonic heart explants
  cell death based on TUNEL assay compared to control cells: No significant difference
Embryonic heart explants; E11.5 explants, compared to PBS, p<0.01
  number of migrating endothelial cells: increased number of migrating endothelial cells
Embryonic heart explants; migrated cells of explants
  proliferative rate based on phosho-histone H3 immunostaining compared to control cells: No significant difference
Embryonic heart explants; thymosin β4 added to primary explants on collagen gel
  migration of myocardial cells away from the explant: a large number of spontaneously beating, cardiac muscle actin-positive cells had migrated away from the explant
ILK; C2C12 cells
  ILK protein levels by Western analysis: modest increase
  total Akt protein: unchanged
ILK; C2C12 cells, phospho-specific antibody
  phosphorylation of Akt (serine 473): increased phosphorylation
ILK; embryonic heart explants or C2C12 myoblasts, synthetic thymosin β4 10 ng/100 ul or expressing plasmid
  ILK detection by immunocytochemistry around the cell edges: markedly enhanced
Myocardial infarction; EDD and ESD significantly higher in control group
  cardiac dilation after infarction (EDD and ESD): decreased cardiac dilation
Myocardial infarction; echocardiography
  degree of improvement, systemic intraperitoneal versus local intracardiac administration: not statistically different
Myocardial infarction; four weeks after infarction, n=23, 95% confidence interval, p<0.0001, control 23.2
  mean fractional shortening of left ventricle: 37.2+/−1.8%
Myocardial infarction; four weeks after infarction, n=23, 95% confidence interval, p<0.0001, control 28.2
  mean ejection fraction: 57.7+/−3.2%
Myocardial infarction; [2]
  improvement in cardiac fractional shortening: greater than 60%
  improvement in ejection fraction: > 100%
Myocardial infarction; six levels of sections through left ventricle, subset of mice, p<0.05
  scar volume: significant reduction
Myocardial infarction; three days after infarction, intracardiac treatment, n=4, 95% confidence interval, p<0.02, controls 28.8
  left ventricle fractional shortening: 39.2+/−2.34%
Myocardial infarction; three days after infarction, intracardiac treatment, p<0.02, controls 44.7
  ejection fraction: 64.2+/−6.69%
Myocardial infarction; three levels of section, all treated mice
  size of scar (trichrome stain): reduced
Myocardial infarction; twenty-four hours after ligation
  cell death by TUNEL assay in cardiomyocytes: striking decrease
